The record followed here is patent US8815864B2, “Indanyloxydihydrobenzofuranylacetic acids” (Boehringer Ingelheim International GmbH, priority 2012, dated 2014).

The target of the test is human GPR40 receptor (Homo sapiens, UniProt O14842). In words: IP1 accumulation measurements using the IPOne assay system. The test is classed as cell-based. To be noted: 1321N1 cells stably expressing human GPR40; stimulation 1 h at 37° C. The protocol: IP1 accumulation measurements using the IPOne assay system—1321N1 cells stably expressing human GPR40 receptor (Euroscreen, Belgium) are seeded 24 h before the assay in white 384-well plates in culture medium containing 10% FCS, 1% Na-Pyruvate and 400 μg/mL G418. IP1 is assayed according to the manufacturer's description (Cisbio Bioassays, France). In brief, the assay is started by substitution of the culture medium by stimulation buffer (Hepes 10 mM, CaCl2 1 mM, MgCl2 0.5 mM, KCl 4.2 mM, NaCl 146 mM, glucose 5.5 mM and LiCl 50 mM, pH 7.4). Cells are stimulated for 1 h at 37° C., 5% CO2 by addition of the compounds that are diluted in stimulation buffer containing LiCl. Assays are stopped by adding HTRF-conjugates (IP1-d2 and Anti-IP1 cryptate Tb) and lysis buffer, provided by the manufacturer. After an incubation time of 1 h at room temperature plates are measured using an EnVision™, Perkin Elmer. The obtained fluorescence ratios at 665/615 […] are then used to calculate the pEC50 values using Assay Explorer 3.3 Software (Accelrys, Inc.) by interpolation using an IP1 reference curve and subsequent sigmoidal curve fitting allowing for a variable hill slope.
Chain of human GPR40 receptor (O14842 whole entry): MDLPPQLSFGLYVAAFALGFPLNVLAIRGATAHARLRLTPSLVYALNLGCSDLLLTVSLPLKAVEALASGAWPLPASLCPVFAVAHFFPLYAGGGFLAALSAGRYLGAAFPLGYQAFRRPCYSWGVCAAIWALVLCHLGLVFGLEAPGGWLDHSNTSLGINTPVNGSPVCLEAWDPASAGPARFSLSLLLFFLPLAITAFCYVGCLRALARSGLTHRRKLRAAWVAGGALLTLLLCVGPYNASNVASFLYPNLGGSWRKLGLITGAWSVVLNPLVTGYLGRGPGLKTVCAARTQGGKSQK

One may read the EC50 as the concentration at which the effect is half-maximal. In turn, `O=C(O)C[C@@H]1COc2cc(O[C@@H]3CCc4c(Oc5ccccc5)ccc(F)c43)ccc21` [Example 1, {(S)-6-[(R)-7-Fluoro-4-phenoxy-indan-1-yloxy]-2,3-dihydro-benzofuran-3-yl}-acetic acid] had an EC50 of 4 nM. This lies in the single-digit nanomolar range.
The same measure for `COc1cccc(Oc2ccc(F)c3c2CC[C@H]3Oc2ccc3c(c2)OC[C@H]3CC(=O)O)c1` [Example 2, {(S)-6-[(R)-7-Fluoro-4-(3-methoxy-phenoxy)-indan-1-yloxy]-2,3-dihydro-benzofuran-3-yl}-acetic acid]: 6 nM; for `COc1ccc(Oc2ccc(F)c3c2CC[C@H]3Oc2ccc3c(c2)OC[C@H]3CC(=O)O)cc1` [Example 3, {(S)-6-[(R)-7-Fluoro-4-(4-methoxy-phenoxy)-indan-1-yloxy]-2,3-dihydro-benzofuran-3-yl}-acetic acid]: 3 nM.
The same measure for `Cc1ccccc1Oc1ccc(F)c2c1CC[C@H]2Oc1ccc2c(c1)OC[C@H]2CC(=O)O` [Example 4, {(S)-6-[(R)-7-Fluoro-4-(2-methyl-phenoxy)-indan-1-yloxy]-2,3-dihydro-benzofuran-3-yl}-acetic acid]: 6 nM.
`Cc1cccc(C)c1Oc1ccc(F)c2c1CC[C@H]2Oc1ccc2c(c1)OC[C@H]2CC(=O)O` [Example 5, {(S)-6-[(R)-7-Fluoro-4-(2,6-dimethyl-phenoxy)-indan-1-yloxy]-2,3-dihydro-benzofuran-3-yl}-acetic acid] had an EC50 of 70 nM. Compared with the last compound, the EC50 is about 12-fold higher.
For the compound `O=C(O)C[C@@H]1COc2cc(O[C@@H]3CCc4c(Oc5cccnc5)ccc(F)c43)ccc21` [Example 6, {(S)-6-[(R)-7-Fluoro-4-pyrid-3-yloxy-indan-1-yloxy]-2,3-dihydro-benzofuran-3-yl}-acetic acid], the midpoint of the response, the EC50, lay at 33 nM.
`O=C(O)C[C@@H]1COc2cc(O[C@@H]3CCc4c(Oc5ccccn5)ccc(F)c43)ccc21` [Example 7, {(S)-6-[(R)-7-Fluoro-4-pyrid-2-yloxy-indan-1-yloxy]-2,3-dihydro-benzofuran-3-yl}-acetic acid] gave an EC50 of 32 nM.
With `N#Cc1ccc(Oc2ccc(F)c3c2CC[C@H]3Oc2ccc3c(c2)OC[C@H]3CC(=O)O)cc1` [Example 8, {(S)-6-[(R)-4-(4-Cyano-phenoxy)-7-fluoro-indan-1-yloxy]-2,3-dihydro-benzofuran-3-yl}-acetic acid], the response was half-maximal at 4 nM (EC50).
As to `Cc1nccc(Oc2ccc(F)c3c2CC[C@H]3Oc2ccc3c(c2)OC[C@H]3CC(=O)O)n1` [Example 9, {(S)-6-[(R)-7-Fluoro-4-(2-methyl-pyrimid-4-yloxy)-indan-1-yloxy]-2,3-dihydro-benzofuran-3-yl}-acetic acid], the EC50 came out at 155 nM.
The same measure for `O=C(O)C[C@@H]1COc2cc(O[C@@H]3CCc4c(Oc5cnccn5)ccc(F)c43)ccc21` [Example 10, {(S)-6-[(R)-7-Fluoro-4-pyrazin-2-yloxy-indan-1-yloxy]-2,3-dihydro-benzofuran-3-yl}-acetic acid]: 35 nM; for `O=C(O)C[C@@H]1COc2cc(O[C@@H]3CCc4c(Oc5ccncc5)ccc(F)c43)ccc21` [Example 11, {(S)-6-[(R)-7-Fluoro-4-pyrid-4-yloxy-indan-1-yloxy]-2,3-dihydro-benzofuran-3-yl}-acetic acid]: 18 nM.
Regarding `O=C(O)C[C@@H]1COc2cc(O[C@@H]3CCc4c(Oc5nc6ccccc6s5)ccc(F)c43)ccc21` [Example 12, {(S)-6-[(R)-4-Benzothiazol-2-yloxy-7-fluoro-indan-1-yloxy]-2,3-dihydro-benzofuran-3-yl}-acetic acid], the EC50 was 12 nM.
Compound `Cn1c(Oc2ccc(F)c3c2CC[C@H]3Oc2ccc3c(c2)OC[C@H]3CC(=O)O)nc2ccccc21` [Example 13, {(S)-6-[(R)-7-Fluoro-4-(1-methyl-1H-benzoimidazol-2-yloxy)-indan-1-yloxy]-2,3-dihydro-benzofuran-3-yl}-acetic acid] yielded a half-maximal effective concentration (EC50) of 216 nM. This EC50 lies about 18-fold higher than the previous one.
`O=C(O)C[C@@H]1COc2cc(O[C@@H]3CCc4c(Oc5ccc(C(F)(F)F)cn5)ccc(F)c43)ccc21` [Example 14, {(S)-6-[(R)-7-Fluoro-4-(5-trifluoromethyl-pyrid-2-yloxy)-indan-1-yloxy]-2,3-dihydro-benzofuran-3-yl}-acetic acid] yielded a concentration giving a half-maximal response (EC50) of 26 nM.
The same measure for `Cc1cccc(Oc2ccc(F)c3c2CC[C@H]3Oc2ccc3c(c2)OC[C@H]3CC(=O)O)n1` [Example 15, {(S)-6-[(R)-7-Fluoro-4-(6-methyl-pyrid-2-yloxy)-indan-1-yloxy]-2,3-dihydro-benzofuran-3-yl}-acetic acid]: 31 nM.
The same measure for `COc1ccc(Oc2ccc(F)c3c2CC[C@H]3Oc2ccc3c(c2)OC[C@H]3CC(=O)O)nn1` [Example 16, {(S)-6-[(R)-7-Fluoro-4-(6-methoxy-pyridazin-3-yloxy)-indan-1-yloxy]-2,3-dihydro-benzofuran-3-yl}-acetic acid]: 138 nM.
`N#Cc1ccccc1Oc1ccc(F)c2c1CC[C@H]2Oc1ccc2c(c1)OC[C@H]2CC(=O)O` [Example 17, {(S)-6-[(R)-4-(2-Cyano-phenoxy)-7-fluoro-indan-1-yloxy]-2,3-dihydro-benzofuran-3-yl}-acetic acid]: the EC50 worked out at 4 nM.
The same measure for `CS(=O)(=O)c1ccc(Oc2ccc(F)c3c2CC[C@H]3Oc2ccc3c(c2)OC[C@H]3CC(=O)O)cc1` [Example 18, {(S)-6-[(R)-7-Fluoro-4-(4-methylsulfonyl-phenoxy)-indan-1-yloxy]-2,3-dihydro-benzofuran-3-yl}-acetic acid]: 41 nM; for `O=C(O)C[C@@H]1COc2cc(O[C@@H]3CCc4c(Oc5nc6ccccc6o5)ccc(F)c43)ccc21` [Example 19, {(S)-6-[(R)-4-Benzoxazol-2-yloxy-7-fluoro-indan-1-yloxy]-2,3-dihydro-benzofuran-3-yl}-acetic acid]: 13 nM.
The same measure for `O=C(O)C[C@@H]1COc2cc(O[C@@H]3CCc4c(Oc5ccc6ncccc6c5)ccc(F)c43)ccc21` [Example 20, {(S)-6-[(R)-7-Fluoro-4-Quinolin-6-yloxy-indan-1-yloxy]-2,3-dihydro-benzofuran-3-yl}-acetic acid]: 6 nM; for `Cc1cc(Oc2ccc(F)c3c2CC[C@H]3Oc2ccc3c(c2)OC[C@H]3CC(=O)O)ccc1C#N` [Example 21, {(S)-6-[(R)-4-(4-Cyano-3-methyl-phenoxy)-7-fluoro-4-indan-1-yloxy]-2,3-dihydro-benzofuran-3-yl}-acetic acid]: 4 nM; for `N#Cc1ccc(Oc2ccc(F)c3c2CC[C@H]3Oc2ccc3c(c2)OC[C@H]3CC(=O)O)c(F)c1` [Example 22, {(S)-6-[(R)-4-(4-Cyano-2-fluoro-phenoxy)-7-fluoro-indan-1-yloxy]-2,3-dihydro-benzofuran-3-yl}-acetic acid]: 3 nM.
The compound `Cc1ccc(Oc2ccc(F)c3c2CC[C@H]3Oc2ccc3c(c2)OC[C@H]3CC(=O)O)c(C#N)c1` [Example 23, {(S)-6-[(R)-4-(2-Cyano-4-methyl-phenoxy)-7-fluoro-indan-1-yloxy]-2,3-dihydro-benzofuran-3-yl}-acetic acid] yielded an EC50 of 7 nM.
The same measure for `Cc1cc(C#N)ccc1Oc1ccc(F)c2c1CC[C@H]2Oc1ccc2c(c1)OC[C@H]2CC(=O)O` [Example 24, {(S)-6-[(R)-4-(4-Cyano-2-methyl-phenoxy)-7-fluoro-indan-1-yloxy]-2,3-dihydro-benzofuran-3-yl}-acetic acid]: 3 nM; for `O=C(O)C[C@@H]1COc2cc(O[C@@H]3CCc4c(Oc5ccc(OC(F)F)cn5)ccc(F)c43)ccc21` [Example 25, {(S)-6-[(R)-4-(5-Difluoromethoxy-pyrid-2-yloxy)-7-fluoro-indan-1-yloxy]-2,3-dihydro-benzofuran-3-yl}-acetic acid]: 13 nM; for `N#Cc1cc(OC(F)(F)F)ccc1Oc1ccc(F)c2c1CC[C@H]2Oc1ccc2c(c1)OC[C@H]2CC(=O)O` [Example 26, {(S)-6-[(R)-4-(2-Cyano-4-trifluoromethoxy-phenoxy)-7-fluoro-indan-1-yloxy]-2,3-dihydro-benzofuran-3-yl}-acetic acid]: 30 nM.
The same measure for `N#Cc1cccc(Oc2ccc(F)c3c2CC[C@H]3Oc2ccc3c(c2)OC[C@H]3CC(=O)O)c1` [Example 27, {(S)-6-[(R)-4-(3-Cyano-phenoxy)-7-fluoro-indan-1-yloxy]-2,3-dihydro-benzofuran-3-yl}-acetic acid]: 7 nM; for `O=C(O)C[C@@H]1COc2cc(O[C@@H]3CCc4c(Oc5ccc(CO)c(F)c5)ccc(F)c43)ccc21` [Example 28, {(S)-6-[(R)-7-Fluoro-4-(3-fluoro-4-hydroxymethyl-phenoxy)-indan-1-yloxy]-2,3-dihydro-benzofuran-3-yl}-acetic acid]: 8 nM; for `N#Cc1ccc(Oc2ccc(F)c3c2CC[C@H]3Oc2ccc3c(c2)OC[C@H]3CC(=O)O)cc1F` [Example 29, {(S)-6-[(R)-4-(4-Cyano-3-fluoro-phenoxy)-7-fluoro-indan-1-yloxy]-2,3-dihydro-benzofuran-3-yl}-acetic acid]: 6 nM.
`N#Cc1ccc(F)cc1Oc1ccc(F)c2c1CC[C@H]2Oc1ccc2c(c1)OC[C@H]2CC(=O)O` [Example 30, {(S)-6-[(R)-4-(2-Cyano-5-fluoro-phenoxy)-7-fluoro-indan-1-yloxy]-2,3-dihydro-benzofuran-3-yl}-acetic acid] gave an EC50 of 11 nM.
With `CN(C)c1ccc(Oc2ccc(F)c3c2CC[C@H]3Oc2ccc3c(c2)OC[C@H]3CC(=O)O)cn1` [Example 31], the EC50 came out at 120 nM.
